Experiments:
[1] = system: H9C2 cells; experiment: Protective effect on heart cells against t-BHP (LDH release); assay type: cell-based; settings: H9C2, t-BHP 400 μM, 2 hours, read-out: EC50 (μM), Cell Protection Effect against t-BHP in Heart Cells
Outline: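 H9C2 cells (1.5×10^4/well, cultured 24 h) were pretreated 15–20 min with compound at 0.01–30 μM final, then exposed 2 h to 400 μM t-BHP. LDH in supernatant was measured colorimetrically at 490 nm after 30 min room-temperature reaction; EC50 derived from protection.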

[2] = system: NIH/3T3 cells; experiment: Cell death protective effect in fibroblasts against Erastin, glutamate and RSL3 (LDH); assay type: cell-based, mouse; settings: 24 hours
Method: In order to identify the protective effect on fibroblasts, NIH/3T3 cells were divided into 96-well plates by 8×10^3 and cultured for 18 to 24 hours. The compounds of Examples were diluted to final concentrations of 0.1 and 1 μM, treated in each well, and incubated for 15 to 20 minutes. Erastin, glutamate, and RSL3 were treated to have final concentrations of 3 μM, 30 mM, and 3 μM, respectively, and cultured for 24 hours. In order to identify the protective effect of each compound, the degree of LDH extracellular secretion was measured using cytotoxicity LDH assay kit [Dojindo; CK12]. Briefly, at the time when the treatment of the cells with Erastin, glutamate, and RSL3 for 24 hours is completed, the supernatants containing the cells are taken by 70 μL and transferred to a new 96-well plate. The assay buffer included in the kit is added in an amount of 70 μL/well (the same amount as the sample) thereto, and then the plate is wrapped with a foil and the reaction is performed at room temperature for 15 minutes. After observing the changed color of the sample, the stop solution was added in an amount of 35 μL/well thereto, and then the 00 inhibition value was calculated by measuring the absorbance value at a wavelength of 490 nm using an iD3 spectrophotometer.

[3] = system: NRK-49F cells; experiment: Cell death protective effect in renal fibroblasts against Erastin, glutamate and RSL3 (LDH); assay type: cell-based, rat; settings: 24 hours
Method: In order to identify the protective effect on renal fibroblasts, NRK-49F cells were divided into 96-well plates by 1×10^4 and cultured for 18 to 24 hours. The compounds of Examples were diluted to final concentrations of 0.1 and 1 μM, treated in each well, and incubated for 15 to 20 minutes. Erastin, glutamate, and RSL3 were treated to have final concentrations of 3 μM, 75 mM, and 3 μM, respectively, and cultured for 24 hours. In order to identify the protective effect of each compound, the degree of LDH extracellular secretion was measured using cytotoxicity LDH assay kit [Dojindo; CK12]. Briefly, at the time when the treatment of the cells with Erastin, glutamate, and RSL3 for 24 hours is completed, the supernatants containing the cells are taken by 70 μl and transferred to a new 96-well plate. The assay buffer included in the kit is added in an amount of 70 μL/well (the same amount as the sample) thereto, and then the plate is wrapped with a foil and the reaction is performed at room temperature for 15 minutes.

[4] = system: ARPE-19 cells; experiment: Cell death protective effect in retinal epithelial cells against Erastin and RSL3 (LDH); assay type: cell-based, human; settings: 24 hours
Method: In order to identify the protective effect on retinal epithelial cells, ARPE-19 cells were divided into 96-well plates by 1×10^4 and cultured for 18 to 24 hours. The compounds of Examples were diluted to final concentrations of 0.03 and 0.3 μM, treated in each well, and incubated for 20 minutes. Erastin, and RSL3 were treated to have final concentrations of 10 μM, and 0.3 μM, respectively, and cultured for 24 hours. In order to identify the protective effect of each compound, the degree of LDH extracellular secretion was measured using cytotoxicity LDH assay kit [Dojindo; CK12]. Briefly, at the time when the treatment of the cells with Erastin, and RSL3 for 24 hours is completed, the supernatants containing the cells are taken by 70 μL and transferred to a new 96-well plate. The assay buffer included in the kit is added in an amount of 70 μL/well (the same amount as the sample) thereto, and then the plate is wrapped with a foil and the reaction is performed at room temperature for 15 minutes.

[5] = system: MLE-12 cells; experiment: Cell death protective effect in lung epithelial cells against RSL3 (LDH); assay type: cell-based, rat; settings: MLE-12, RSL3 1.0 μM, 24 hours
Method: In order to identify the protective effect on lung epithelial cells, MLE-12 cells were divided into 96-well plates by 5×10^3 and cultured for 18 to 24 hours. The compounds of Examples were diluted to final concentrations of 0.1 and 1.0 μM, treated in each well, and incubated for 20 minutes. RSL3 was treated to have final concentrations of 1.0 μM, respectively, and cultured for 24 hours. In order to identify the protective effect of each compound, the degree of LDH extracellular secretion was measured using cytotoxicity LDH assay kit [Dojindo; CK12]. Briefly, at the time when the treatment of the cells with RSL3 for 24 hours is completed, the supernatants containing the cells are taken by 70 μL and transferred to a new 96-well plate. The assay buffer included in the kit is added in an amount of 70 μL/well (the same amount as the sample) thereto, and then the plate is wrapped with a foil and the reaction is performed at room temperature for 15 minutes.

[6] = NIH/3T3, Erastin 3 μM, compound 0.1 μM
[7] = NIH/3T3, Erastin 3 μM, compound 1.0 μM
[8] = NIH/3T3, Glutamate 30 mM, compound 0.1 μM
[9] = NIH/3T3, Glutamate 30 mM, compound 1.0 μM
[10] = NIH/3T3, RSL3 3 μM, compound 0.1 μM
[11] = NIH/3T3, RSL3 3 μM, compound 1.0 μM
[12] = Glutamate 75 mM, compound 0.1 μM
[13] = Glutamate 75 mM, compound 1.0 μM
[14] = ARPE-19, Erastin 10 μM, compound 0.03 μM
[15] = ARPE-19, Erastin 10 μM, compound 0.3 μM
[16] = ARPE-19, RSL3 0.3 μM, compound 0.03 μM
[17] = ARPE-19, RSL3 0.3 μM, compound 0.3 μM

SMILES	EC50 [1] [µM]	inhibition (%) [2, 6] [%]	inhibition (%) [2, 7] [%]	inhibition (%) [2, 8] [%]	inhibition (%) [2, 9] [%]	inhibition (%) [2, 10] [%]	inhibition (%) [2, 11] [%]	inhibition (%) ([3]; Erastin 3 μM, compound 0.1 μM)	inhibition (%) ([3]; Erastin 3 μM, compound 1.0 μM)	inhibition (%) [3, 12] [%]	inhibition (%) [3, 13] [%]	inhibition (%) ([3]; RSL3 3 μM, compound 0.1 μM)	inhibition (%) ([3]; RSL3 3 μM, compound 1.0 μM)	inhibition (%) [4, 14] [%]	inhibition (%) [4, 15] [%]	inhibition (%) [4, 16] [%]	inhibition (%) [4, 17] [%]	inhibition (%) ([5]; compound 0.1 μM)	inhibition (%) ([5]; compound 1.0 μM)
COCCOCc1cc(NC2CCOCC2)c2[nH]c(-c3ccccc3)cc2c1 [Example 1, 5-(2-methoxyethoxymethyl)-2-phenyl-N-tetrahydropyran-4-yl-1H-indol-7-amine]	≤ 0.3	99	100	100	100	100	100	99	99	100	100	99	99	100	100	95	100	100	100
COCCOCc1cc(NCC2CCOCC2)c2[nH]c(-c3ccccc3)cc2c1 [Example 4, 5-2(methoxyethoxymethyl)-2-phenyl-N-(tetrahydropyran-4-ylmethyl)-1H-indol-7-amine]	≤ 0.3	99	99	100	100	100	100	99	99	99	100	98	99	100	100	100	100	90	91
COCCOCc1cc(NC2CCN(C(C)=O)CC2)c2[nH]c(-c3ccccc3)cc2c1 [Example 30, 1-[4-[[5-(2-methoxyethoxymethyl)-2-phenyl-1H-indol-7-yl]amino]piperidyl]-1-ethanone]	≤ 0.3	6	100	100	100	100	100	98	98	97	100	52	98	80	100	60	100	84	95
CCOCCOCc1cc(NC2CCCC2)c2[nH]c(-c3ccccc3)cc2c1 [Example 36, N-cyclopentyl-5-(2-ethoxyethoxymethyl)-2-phenyl-1H-indol-7-amine]	≤ 0.3	99	100	100	100	100	100	99	99	100	100	98	99	98	100	100	100	89	94
COCCOCCOCc1cc(NC2CCCC2)c2[nH]c(-c3ccccc3)cc2c1 [Example 39, N-cyclopentyl-5-[2-(2-methoxyethoxy)ethoxymethyl]-2-phenyl-1H-indol-7-amine]	≤ 0.3	99	100	99	100	100	100	99	98	100	100	98	99	100	100	100	100	89	89
CCOC(=O)c1ccc(NC2CCCCC2)c(N)c1 [Ferrostatin-1, reference compound]		17	99	97	97	100	100	99	98	95	100	94	99	86	100	61	100	100	100
